Test results: patent publication US9683014B2, “Dipeptide mimetics of NGF and BDNF neurotrophins” (UCHREZHDENIE ROSSIISKOI AKADEMII MEDITSYNSKIKH NAUK …, priority 2009, dated 2017)
Peptide text beside a SMILES is read from it.

Legend:
HT-22 cells [1] = test: Oxidative stress (H2O2) model in cultured HT-22 cells (MTT test); format: cell-based, mouse; conditions: added 24 hours prior to the stress exposure, 10^−8 M to 10^−5 M
Protocol: To induce an oxidative stress, the cells were placed in a growth medium containing 5% FBS, then a freshly prepared H2O2 solution was added to a final concentration of 1.5 mM and incubated for 30 min at 37° C. and 5% CO2. Thereafter, the medium was replaced with a new one and the cells were cultured for 4 h under the same conditions.
The determination of cell viability was carried out by MTT test. […] At the end of an experiment the growth medium was replaced with an MTT solution (0.5 mg/ml) and incubated for 30 min at 37° C. and 5% CO2. The MTT solution was then removed from the wells and DMSO was added to dissolve the formazan precipitate. Then the optical density was measured using a Multiscan (Thermo) spectrophotometer at a wavelength of 600 nm.

HT-22 cells [2] = conditions: added 24 hours prior to glutamate
Protocol: The determination of cell viability was carried out by MTT test. MTT is a water soluble tetrazolium salt of yellow color which readily permeates cells. In living cells, MTT is converted into water insoluble formazan crystals of violet color. At the end of an experiment the growth medium was replaced with an MTT solution (0.5 mg/ml) and incubated for 30 min at 37° C. and 5% CO2. The MTT solution was then removed from the wells and DMSO was added to dissolve the formazan precipitate. Then the optical density was measured using a Multiscan (Thermo) spectrophotometer at a wavelength of 600 nm.

Balb/c mice = test: Behavioral despair test according to Porsolt; format: in vivo, mouse
Protocol: In order to detect a potential antidepressant activity of the peptide BDNF mimetics, the behavioral despair test was used in the original version (Porsolt R. D., Anton G., Blavet N., Jalfre M. Behavioral despair in rats: a new model sensitive to antidepressants. European Journal of Pharmacology, 1978, 47, 379-391).
For these experiments, male Balb/c mice weighing 20-22 g were used. On day 1, the animals were placed in a narrow vessel filled with water at 22° C. for 10 min. 60 min later a test compound was administered intraperitoneally (GSB-106 at 1 mg/kg, GBK-108 and GBK-201 at 0.01, 0.1, 1.0, 10.0 mg/kg). 24 hours later the animals were placed again in the same conditions to record the retention time of the characteristic immobile posture (abandoning any active defensive and exploratory behavior) for a 5 min test period. Imipramine was administered 60 min prior to the 5 min test period (on day 2). The control groups were treated with distilled water. Each experimental group comprised at least 6 mice.

HT-22 neuronal cell line = test: Viability of HT-22 neuronal cell line without damaging factors (MTT test); format: cell-based, mouse; conditions: FIG. 1.1, different molar concentrations
Protocol: The rat adrenal […] pheochromocytoma cell line PC12 was obtained from the Cell Culture Museum, RAN Institute of Molecular Genetics. The immortalized mouse hippocampal cell line HT-22 was a gift from Prof. F. Viegant, Utrecht University, the Netherlands.
The cells were grown in DMEM medium containing 5% FBS and 2 mM L-glutamine. The cells were incubated at 37° C. and 5% CO2. The growth medium was changed at 24 hours after inoculation and every 3 days thereafter. The cells were re-plated every week into culture flasks with a total area of 75 cm^2.
All types of cells were plated in DMEM medium.

NCCCC[C@H](NC(=O)[C@H](CO)NC(=O)CCC(=O)O)C(=O)NCCCCCCNC(=O)[C@H](CCCCN)NC(=O)[C@H](CO)NC(=O)CCC(=O)O [GSB-106, bis-(N-monosuccinyl-seryl-lysine) hexamethylenediamide]
neuronal survival under oxidative stress (HT-22 cells [1]): improved the neuronal survival | protective effect against glutamate cytotoxicity (HT-22 cells [2]): protective effect | immobility time (Balb/c mice; GSB-106 1 mg/kg i.p., 24 h before the test): reducing the immobility time

CC(=O)N[C@@H](CC(=O)O)C(=O)N[C@@H](CO)C(N)=O [GBK-108, N-acetyl-aspartyl-serine amide] (Ac-Asp-Ser-NH2)
neuronal survival under oxidative stress (HT-22 cells [1]): improved the neuronal survival | immobility time (Balb/c mice; GBK-108 at 10 mg/kg i.p., 24 h before the test): increased the immobility time

NCCCC[C@H](NC(=O)[C@H](CCC(=O)O)NC(=O)CCC(=O)O)C(=O)NCCCCNC(=O)[C@H](CCCCN)NC(=O)[C@H](CCC(=O)O)NC(=O)CCC(=O)O [GK-2c, bis-(N-monosuccinyl-glutamyl-lysine)tetramethylenediamide]
viability of HT-22 cells (HT-22 neuronal cell line): reduced the viability

CN(C)CCCN1c2ccccc2CCc2ccccc21 [imipramine, Imipramine, reference compound]
immobility time (Balb/c mice; imipramine 60 min prior to the 5 min test): reducing the immobility time
